Where two headings read alike, the source gives them in different places.
How the values were obtained:
[1] = tested on: Ba/F3 harboring the T315I mutant isoform of BCR-ABL; assay: BaF3/BCR-ABL T315I mouse xenograft model, Experiment 4; type: in vivo; conditions: oral, 14 days, NOD SCID mice
Method: The murine pro-B cell line Ba/F3 harboring the T315I mutant isoform of BCR-ABL was subcutaneously injected into NOD SCID mice (NOD.CB17-Prkdc^scid/J). […] The tumor volumes in two dimensions and the body weights of the mice were measured three times a week (volume=L×W^2×0.5).

JURKAT = assay: MTT cell viability assay, Experiment 3; type: cell-based; conditions: Homo sapiens, read-out: IC50 cell viability, Non-CML leukemia cells JURKAT
Text: (§1) This study evaluated the effect of the pure optical isomers on human leukemia cell viability in vitro. Ponatinib was used as the positive control. Two BCR-ABL-positive human leukemia cell lines, K562 and KU812, were used in this study. Besides, Ba/F3 cell transfectants expressing native or T315I BCR-ABL, whose viability is dependent on ectopically expressed BCR-ABL, were also used in this work. Ba/F3 cells expressing BCR-ABL^T315I were used for testing the efficiency of tested compounds on point mutation BCR-ABL^T315I, which cause drug resistance to Imatinib (Gleevec). U937 and JURKAT, two BCR-ABL-negative human leukemia cell lines, were employed to test the selectivity of tested compounds.
(§2) Cells were seeded in 24-well plates, and treated with drugs at corresponding concentrations. Cell viability was measured using a MTT (3-(4,5-dimethylthiazol-2-yl)-2,5-diphenyltetrazolium bromide)-based colorimetric assay with a 96-well plate reader. IC50 values were calculated using the mean of two independent experiments.

U937 = assay: MTT cell viability assay, Experiment 3; type: cell-based; conditions: Homo sapiens
Text: as §1, §2

KU812 = assay: MTT cell viability assay, Experiment 3; type: cell-based; conditions: Homo sapiens
Text: as §1, §2

K562 = assay: MTT cell viability assay, Experiment 3; type: cell-based; conditions: Homo sapiens
Text: as §1, §2

[2] = molecular target: Ba/F3 cells expressing native BCR-ABL (Homo sapiens, UniProt P00519); assay: MTT cell viability assay, Experiment 3; type: cell-based, murine; conditions: Mean ± S.E.M, two independent experiments, read-out: IC50 cell viability, Ba/F3 cells Native BCR-ABL
Text: as §1, with “Ponatinib was used as the positive control.” left out
as §2

[3] = molecular target: Ba/F3 cells expressing BCR-ABL T315I (Homo sapiens, UniProt P00519, T315I, cells depend on it); assay: MTT cell viability assay, Experiment 3; type: cell-based, murine; conditions: Mean ± S.E.M, two independent experiments, read-out: IC50 cell viability, Ba/F3 cells T315I BCR-ABL
Text: as §1, with “Ponatinib was used as the positive control.” left out
as §2

[4] = MTT, Mean ± S.E.M, two independent experiments
[5] = U-937, MTT, Mean ± S.E.M, two independent experiments, read-out: IC50 cell viability, Non-CML leukemia cells U937
[6] = KU812, MTT, Mean ± S.E.M, two independent experiments, read-out: IC50 cell viability, CML leukemia cells KU812
[7] = K562, MTT, Mean ± S.E.M, two independent experiments, read-out: IC50 cell viability, CML leukemia cells K562

SMILES	TGI (Tumor growth inhibition) ([1]; 5 mg/kg/day) [%]	IC50 (JURKAT; [4]) [nM]	IC50 (U937; [5]) [nM]	IC50 (KU812; [6]) [nM]	IC50 (K562; [7]) [nM]	GI50 [2] [nM]	GI50 [3] [nM]	TGI (Tumor growth inhibition) ([1]; 10 mg/kg/day) [%]	TGI (Tumor growth inhibition) ([1]; 20 mg/kg/day) [%]	IC50 (JURKAT) [nM]	IC50 (U937; U-937, read-out: IC50 cell viability, Non-CML leukemia cells U937) [nM]	IC50 (KU812; KU812, read-out: IC50 cell viability, CML leukemia cells KU812) [nM]	IC50 (K562; K562, read-out: IC50 cell viability, CML leukemia cells K562) [nM]
CN1CCN([C@H]2CC(F)(F)c3cc(NC(=O)c4ccc(Cl)c(C#Cc5cnc6cccnn56)c4)ccc32)CC1 (single isomer, unassigned) [Compound 38-(S)]	81	> 1000	> 1000	0.2 ± 0.1	0.6 ± 0.1	2.2 ± 0.3	3.8 ± 0.2						
Cc1ccc(C(=O)Nc2ccc3c(c2)C(F)(F)C[C@@H]3N2CCN(C)CC2)cc1C#Cc1cnc2cccnn12 [Compound 36-(S), (S)-N-(1,1-difluoro-2,3-dihydro-3-(4-methylpiperazin-1-yl)-1H-indan-6-yl)-3-(2-(imidazo[1,2-b]pyridazin-3-yl)ethynyl)-4-methylbenzamide]		851 ± 25.7	868 ± 88.7	0.1 ± 0.1	0.4 ± 0.1	2.1 ± 0.2	4.7 ± 1.3	105	108				
Cc1ccc(C(=O)Nc2ccc(CN3CCN(C)CC3)c(C(F)(F)F)c2)cc1C#Cc1cnc2cccnn12 [Ponatinib, reference compound]								75	94	295 ± 5	246 ± 12.5	0.1 ± 0.1	0.3 ± 0.1

— patent US9174996B2, “Protein kinase inhibitors” (Astar Biotech LLC, priority 2012, dated 2015)
